From patent EP4711369A1, “1H-[1,2,3]TRIAZOLO[4,5-H]QUINAZOLINE COMPOUNDS AS PROTEIN KINASE INHIBITORS” (Chengdu Cynogen Bio-Pharmaceutical Technology Co., Ltd., priority 2023, dated 2024)
Where two headings read alike, the source gives them in different places.

What was measured:
CDK2/cyclin E = CDK2/cyclin E (Homo sapiens, UniProt P24941); assay: Assay of kinase activity (ADP-Glo); type: biochemical; settings: kinase inhibitory activity, read-out: CDK2/E1 IC50
Procedure: (§1) CDK/cyclin catalyzes the phosphorylation of a substrate, which concomitantly consumes ATP and produces ADP. The inhibition rate (%) in the presence of a small molecule inhibitor was assessed by measuring the amount of ADP generated in the reaction. The assay compounds were thoroughly mixed by vortexing and then diluted in DMSO to 100× the assay concentration. […] A 2× kinase solution was prepared using a 1× kinase reaction buffer (50 mM Hepes, 10 mM MgCl2, 0.01% Brij35, 2 mM DTT). 2 µL of the kinase solution was transferred to the 384-well assay plate, and the plate was centrifuged at 1000 rpm for 60 seconds in a microplate centrifuge. The plate was incubated at 25 °C in a biochemical incubator for 10 minutes. A 2x mixture of substrate and ATP was prepared in the kinase reaction buffer. Then, 2 µL of the mixture of substrate and ATP was added to the 384-well assay plate. The plate was centrifuged at 1000 rpm for 60 seconds in a microplate centrifuge, and incubated at 25 °C in a biochemical incubator for 60 minutes. 4 µL of ADP-Glo Reagent (Cat. No. V9103, manufacturer: Promega) incubated at 25 °C in a biochemical incubator was added to each well of the 384-well assay plate. The plate was centrifuged at 1000 rpm for 60 seconds in a microplate centrifuge, and incubated at 25 °C in a biochemical incubator for 40 minutes. 8 µL of Detection Reagent incubated at 25 °C in a biochemical incubator was added to each well of the 384-well assay plate. The plate was centrifuged at 1000 rpm for 60 seconds in a microplate centrifuge, and incubated at 25 °C in a biochemical incubator for 40 minutes. Finally, luminescence signals were read using a multifunctional microplate reader (model: PHERAstar FSX, manufacturer: BMG). IC50 values were calculated by nonlinear fitting of the concentration-response curves using GraphPad Prism software.

CDK4/cyclin D1 = CDK4/cyclin D1 (Homo sapiens, UniProt P11802); assay: Assay of kinase activity (ADP-Glo); type: biochemical; settings: kinase inhibitory activity
Procedure: as §1

CDK6/cyclin D3 = CDK6/cyclin D3 (Homo sapiens, UniProt Q00534); assay: Assay of kinase activity (ADP-Glo); type: biochemical; settings: kinase inhibitory activity
Procedure: (§2) CDK/cyclin catalyzes the phosphorylation of a substrate, which concomitantly consumes ATP and produces ADP. The inhibition rate (%) in the presence of a small molecule inhibitor was assessed by measuring the amount of ADP generated in the reaction. The assay compounds were thoroughly mixed by vortexing and then diluted in DMSO to 100× the assay concentration. 40 nL of a compound was transferred to a 384-well assay plate using a nanoliter pipetting system (ECHO® 655 SYSTEM). A 2× kinase solution was prepared using a 1× kinase reaction buffer (50 mM Hepes, 10 mM MgCl2, 0.01% Brij35, 2 mM DTT). 2 µL of the kinase solution was transferred to the 384-well assay plate, and the plate was centrifuged at 1000 rpm for 60 seconds in a microplate centrifuge. The plate was incubated at 25 °C in a biochemical incubator for 10 minutes. A 2x mixture of substrate and ATP was prepared in the kinase reaction buffer. Then, 2 µL of the mixture of substrate and ATP was added to the 384-well assay plate. The plate was centrifuged at 1000 rpm for 60 seconds in a microplate centrifuge, and incubated at 25 °C in a biochemical incubator for 60 minutes. 4 µL of ADP-Glo Reagent (Cat. No. V9103, manufacturer: Promega) incubated at 25 °C in a biochemical incubator was added to each well of the 384-well assay plate. The plate was centrifuged at 1000 rpm for 60 seconds in a microplate centrifuge, and incubated at 25 °C in a biochemical incubator for 40 minutes. 8 µL of Detection Reagent incubated at 25 °C in a biochemical incubator was added to each well of the 384-well assay plate. The plate was centrifuged at 1000 rpm for 60 seconds in a microplate centrifuge, and incubated at 25 °C in a biochemical incubator for 40 minutes. Finally, luminescence signals were read using a multifunctional microplate reader (model: PHERAstar FSX, manufacturer: BMG). IC50 values were calculated by nonlinear fitting of the concentration-response curves using GraphPad Prism software.

[1] = system: human acute myeloid leukemia MV-4-11 cells; assay: Assay of cell proliferation (CellTiter-Glo); type: cell-based; settings: MV4-11, 144 h, 6 days, read-out: MV-4-11 IC50 of cell proliferation inhibitory activity
Procedure: (§3) Human ovarian cancer OVCAR3 cells were inoculated at 2000 cells/well in a 96-well plate and cultured in RPMI 1640 medium containing 20% FBS at 37 °C and 5% CO2 overnight in an incubator. The next day, the compounds were subjected to a three-fold gradient dilution in DMSO from a peak concentration of 2 mM to give nine concentrations. Then, the compounds were diluted 3:200 in growth medium, and finally diluted 1:3 in the cell culture supernatant to give a culture supernatant containing 0.5% DMSO, with the compounds treatment concentrations ranging from 10 µM to 0.1 nM. The cells and the compounds were incubated at 37 °C and 5% CO2 for 6 days. Then, cell proliferation assay was performed using the CellTiter-Glo (manufacturer: Promega, Cat. No. G9242), and luminescence signals were read using a multifunctional microplate reader (model: Synergy H1, manufacturer: BiotTek). IC50 values were calculated by fitting of the concentration-response curves with a four-parameter analysis method using GraphPad Prism software.
(§4) The cell proliferation assays of human colon cancer HCT-116 cells, human breast cancer MCF-7 cells, human breast cancer HCC1806 cells, human acute myeloid leukemia MV-4-11 cells, and human gastric cancer MKN1 cells were performed according to the same method, with different inoculation densities set according to different cell growth characteristics.

[2] = system: human breast cancer HCC1806 cells; assay: Assay of cell proliferation (CellTiter-Glo); type: cell-based; settings: 6 days, read-out: HCC1806 IC50 of cell proliferation inhibitory activity
Procedure: as §3, §4

[3] = system: human gastric cancer MKN1 cells; assay: Assay of cell proliferation (CellTiter-Glo); type: cell-based; settings: read-out: MKN1 IC50 of cell proliferation inhibitory activity
Procedure: as §3, §4

[4] = system: Human ovarian cancer OVCAR3 cells; assay: Assay of cell proliferation (CellTiter-Glo); type: cell-based; settings: 6 days, read-out: OVCAR3 IC50 of cell proliferation inhibitory activity
Procedure: as §3

CDK9/cyclin T1 = CDK9/cyclin T1 (Homo sapiens, UniProt P50750); assay: Assay of kinase activity (ADP-Glo); type: biochemical; settings: kinase inhibitory activity
Procedure: as §2

[5] = Homo sapiens, MKN-1, 144 h, MNK1, 6 days

Chain of CDK6/cyclin D3 (Q00534 whole entry, species assumed): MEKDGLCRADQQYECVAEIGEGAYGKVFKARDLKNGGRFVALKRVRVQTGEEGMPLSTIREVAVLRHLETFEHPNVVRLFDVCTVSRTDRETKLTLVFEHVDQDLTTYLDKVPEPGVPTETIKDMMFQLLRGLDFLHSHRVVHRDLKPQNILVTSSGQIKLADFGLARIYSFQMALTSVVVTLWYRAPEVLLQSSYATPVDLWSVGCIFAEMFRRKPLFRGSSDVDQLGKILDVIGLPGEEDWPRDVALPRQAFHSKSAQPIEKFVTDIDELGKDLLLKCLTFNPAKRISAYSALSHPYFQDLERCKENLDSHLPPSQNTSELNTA
Chain of CDK6/cyclin D3 (P30281 whole entry partner, species assumed): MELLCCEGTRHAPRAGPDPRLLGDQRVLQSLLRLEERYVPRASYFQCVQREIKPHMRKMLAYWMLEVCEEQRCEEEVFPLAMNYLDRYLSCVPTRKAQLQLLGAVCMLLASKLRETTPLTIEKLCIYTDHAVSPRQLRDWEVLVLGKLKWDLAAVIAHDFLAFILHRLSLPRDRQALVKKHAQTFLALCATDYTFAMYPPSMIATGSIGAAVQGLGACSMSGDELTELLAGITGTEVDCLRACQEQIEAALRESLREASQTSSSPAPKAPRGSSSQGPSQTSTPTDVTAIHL
Chain of CDK4/cyclin D1 (P11802 whole entry, species assumed): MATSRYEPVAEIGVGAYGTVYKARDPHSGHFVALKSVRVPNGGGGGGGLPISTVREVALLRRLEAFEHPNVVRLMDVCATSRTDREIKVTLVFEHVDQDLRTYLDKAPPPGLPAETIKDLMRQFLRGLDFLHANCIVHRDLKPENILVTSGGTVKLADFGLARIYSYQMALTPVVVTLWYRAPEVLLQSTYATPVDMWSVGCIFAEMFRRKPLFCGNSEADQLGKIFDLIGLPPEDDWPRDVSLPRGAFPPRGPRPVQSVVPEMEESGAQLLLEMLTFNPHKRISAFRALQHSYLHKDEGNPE
Chain of CDK4/cyclin D1 (P24385 whole entry partner, species assumed): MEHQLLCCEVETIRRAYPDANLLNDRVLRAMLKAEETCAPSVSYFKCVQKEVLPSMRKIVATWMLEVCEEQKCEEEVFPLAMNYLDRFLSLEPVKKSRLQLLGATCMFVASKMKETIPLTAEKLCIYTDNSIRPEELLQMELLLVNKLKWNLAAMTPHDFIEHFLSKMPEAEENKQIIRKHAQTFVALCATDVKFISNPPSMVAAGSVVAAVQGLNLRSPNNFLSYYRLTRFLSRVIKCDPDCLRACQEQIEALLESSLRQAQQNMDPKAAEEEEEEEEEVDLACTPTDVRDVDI
Chain of CDK9/cyclin T1 (P50750 whole entry, species assumed): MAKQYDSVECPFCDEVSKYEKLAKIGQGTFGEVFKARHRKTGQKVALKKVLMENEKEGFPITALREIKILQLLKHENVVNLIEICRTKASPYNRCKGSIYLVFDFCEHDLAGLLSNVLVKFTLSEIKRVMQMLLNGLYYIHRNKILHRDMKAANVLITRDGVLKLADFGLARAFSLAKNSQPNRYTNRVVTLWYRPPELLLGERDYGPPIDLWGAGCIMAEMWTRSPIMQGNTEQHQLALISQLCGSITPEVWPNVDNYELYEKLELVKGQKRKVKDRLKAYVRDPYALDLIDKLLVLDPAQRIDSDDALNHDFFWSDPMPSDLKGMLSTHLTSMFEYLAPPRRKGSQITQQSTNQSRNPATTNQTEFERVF
Chain of CDK9/cyclin T1 (O60563 whole entry partner, species assumed): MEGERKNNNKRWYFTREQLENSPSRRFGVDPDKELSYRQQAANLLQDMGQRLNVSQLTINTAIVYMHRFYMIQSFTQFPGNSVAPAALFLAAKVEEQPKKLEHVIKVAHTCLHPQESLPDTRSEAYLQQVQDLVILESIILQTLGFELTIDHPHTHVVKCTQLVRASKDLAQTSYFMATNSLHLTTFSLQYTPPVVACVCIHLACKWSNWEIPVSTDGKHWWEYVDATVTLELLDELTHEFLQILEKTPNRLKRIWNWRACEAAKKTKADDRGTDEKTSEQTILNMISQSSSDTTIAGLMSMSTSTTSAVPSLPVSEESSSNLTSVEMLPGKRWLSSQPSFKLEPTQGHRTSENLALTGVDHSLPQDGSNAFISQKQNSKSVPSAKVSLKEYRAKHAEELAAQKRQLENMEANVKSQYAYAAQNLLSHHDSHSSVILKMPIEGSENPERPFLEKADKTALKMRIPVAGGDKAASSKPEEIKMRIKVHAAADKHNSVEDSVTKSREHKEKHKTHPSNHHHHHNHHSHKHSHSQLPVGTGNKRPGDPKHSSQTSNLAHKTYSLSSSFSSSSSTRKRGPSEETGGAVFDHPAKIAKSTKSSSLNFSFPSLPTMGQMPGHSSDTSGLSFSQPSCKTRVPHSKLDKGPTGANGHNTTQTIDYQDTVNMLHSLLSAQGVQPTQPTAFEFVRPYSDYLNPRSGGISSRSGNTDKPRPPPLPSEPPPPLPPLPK

Molecule | IC50 (CDK2/cyclin E) [nM] | IC50 (CDK4/cyclin D1) [nM] | IC50 (CDK6/cyclin D3) [nM] | IC50 [1] [nM] | IC50 ([2]; Homo sapiens, 144 h) [nM] | IC50 [3, 5] [nM] | IC50 ([4]; Homo sapiens, OVCAR-3, 144 h) [nM] | IC50 (CDK9/cyclin T1) [nM] | IC50 [2] [nM] | IC50 ([3]; column head MKN1, 6 days) [nM] | IC50 [4] [nM]
CC(C)n1nnc2ccc3cnc(Nc4ccc(C(=O)N5CCN(C)[C@H](C)C5)cc4)nc3c21 [Example I-27, (R)-(3,4-Dimethylpiperazin-1-yl)(4-((1-isopropyl-1H-[1,2,3]triazolo[4,5-H]quinazolin-8-yl)amino)phenyl)metha none] | 2 | 5 | 14 | 6 | 186 | 32 | 69 | – | – | – | –
CC(C)n1nnc2ccc3cnc(Nc4ccc(C(=O)N5CC[C@@H](C)[C@@H](N)C5)cc4)nc3c21 [Example I-12, ((3R,4R)-3-Amino-4-methylpiperidin-1-yl)(4-((1-isopropyl-1H-[1,2,3]triazolo[4,5-H]quinazolin-8-yl)amino)phenyl)metha none] | 1 | 3 | 18 | 6 | 84 | 30 | 26 | – | – | – | –
CC(C)n1nnc2ccc3cnc(Nc4ccc(C(=O)N5CC[C@@H](O)[C@H](N)C5)cc4)nc3c21 [Example I-13, ((3R,4R)-3-Amino-4-hydroxypiperidin-1-yl)(4-((1-isopropyl-1H-[1,2,3]triazolo[4,5-H]quinazolin-8-yl)amino)phenyl)metha none] | 0.8 | 4 | 29 | 4 | 330 | 252 | 156 | – | – | – | –
CC[C@H](Nc1nc(NCc2cnc(C)cc2C)c2ncn(C(C)C)c2n1)[C@@H](C)O [CYC-065 (Fadraciclib), reference compound] | 3 | 228 | > 1000 | 171 | 623 | 209 | 349 | – | – | – | –
(S)-(3-Aminopyrrolidin-1-yl)(4-(4-(difluoromethyl)-1-isopropyl-1H-[1,2,3]triazolo[4,5-H]quinazolin-8-yl)amino)phenyl)methanone [Example I-43] | 1 | 2 | 8 | – | – | – | – | 130 | 631 | 444 | 676
CC(C)n1nnc2ccc3cnc(Nc4ccc(C(=O)N5CC[C@H](N)[C@H](O)C5)cc4)nc3c21 [Example I-14, ((3R,4S)-4-Amino-3-hydroxypiperidin-1-yl)(4-((1-isopropyl-1H-[1,2,3]triazolo[4,5-H]quinazolin-8-yl)amino)phenyl)metha none] | 2 | 2 | 39 | 11 | 424 | 66 | 102 | – | – | – | –

The remaining lines, values ahead:

IC50 (CDK2/cyclin E) [nM] | IC50 (CDK4/cyclin D1) [nM] | IC50 (CDK6/cyclin D3) [nM] | IC50 [1] [nM] | IC50 ([2]; Homo sapiens, 144 h) [nM] | IC50 [3, 5] [nM] | IC50 ([4]; Homo sapiens, OVCAR-3, 144 h) [nM] | IC50 (CDK9/cyclin T1) [nM] | IC50 [2] [nM] | IC50 ([3]; column head MKN1, 6 days) [nM] | IC50 [4] [nM] | Molecule
0.06 | 1 | 4 | – | 7 | 3 | 6 | 2 | – | – | – | CN1CCCN(C(=O)c2ccc(Nc3ncc4ccc5nnn(C6CCCC6)c5c4n3)cc2)CC1 [Example I-42, (4-((1-Cyclopentyl-1H-[1,2,3]triazolo[4,5-H]quinazolin-8-yl)amino)phenyl)(4-methyl-1,4-diazepan-1-yl)methanone]
1 | 2 | 12 | – | 207 | 15 | 40 | 6 | – | – | – | CCN1CCN(C(=O)c2ccc(Nc3ncc4ccc5nnn(C(C)C)c5c4n3)cc2)CC1 [Example I-29, (4-Ethylpiperazin-1-yl)(4-((1-isopropyl-1H-[1,2,3]triazolo[4,5-H]quinazolin-8-yl)amino)phenyl)metha none]
0.7 | 3 | 24 | – | 317 | 170 | 275 | 134 | – | – | – | CC(C)n1nnc2c(C(F)F)cc3cnc(Nc4ccc(C(=O)N5CCCNCC5)cc4)nc3c21 [Example I-46]
2 | 2 | 18 | 9 | 174 | 42 | 59 | – | – | – | – | CC(C)n1nnc2ccc3cnc(Nc4ccc(C(=O)N5CCN(C)[C@@H](C)C5)cc4)nc3c21 [Example I-28, (S)-(3,4-Dimethylpiperazin-1-yl)(4-((1-isopropyl-1H-[1,2,3]triazolo[4,5-H]quinazolin-8-yl)amino)phenyl)metha none]
0.08 | 1 | 5 | – | 15 | 4 | 11 | 2 | – | – | – | O=C(c1ccc(Nc2ncc3ccc4nnn(C5CCCC5)c4c3n2)cc1)N1CCCNCC1 [Example I-41, (4-((1-Cyclopentyl-1H-[1,2,3]triazolo[4,5-H]quinazolin-8-yl)amino)phenyl)(1,4-diazepan-1-yl)methanone]
0.7 | 2 | 16 | – | 404 | 127 | 321 | 140 | – | – | – | CN[C@H]1CCN(C(=O)c2ccc(Nc3ncc4cc(C(F)F)c5nnn(C(C)C)c5c4n3)cc2)C1 [Example I-44, (S)-(4-((4-(difluoromethyl)-1-isopropyl-1H-[1,2,3]triazolo[4,5-H]quinazolin-8-yl)amino)phenyl)(3-(methylamino)pyrrolidin-1-yl)methanone]
7 | 8 | 89 | – | 273 | 67 | 193 | 380 | – | – | – | CC(C)n1nnc2ccc3cnc(Nc4ccc(C(=O)N5CCN(CCCO)CC5)cc4)nc3c21 [Example I-31, (4-(3-Hydroxypropyl)piperazin-1-yl)(4-((1-isopropyl-1H-[1,2,3]triazolo[4,5-H]quinazolin-8-yl)amino)phenyl)metha none]
